In ChEMBL document CHEMBL3585339, “Synthesis, biological activities and pharmacokinetic properties of new fluorinated derivatives of selective PDE4D inhibitors” (Bioorg Med Chem, 2015):
Active and inactive are the calls of the source. The calls are words filed in the database; no cut-off is given here.

Assays:
[1] = molecular target: 3',5'-cyclic-AMP phosphodiesterase 4A (Homo sapiens) (UniProt P27815); test: Inhibition of human recombinant PDE4A4 expressed in baculoviral system using cAMP as substrate at 10 uM by fluorescence polarization assay relative to control
[2] = Cytotoxicity against human HTLA-230 cells at 10 uM after 24 hrs by lactate dehydrogenase release assay (reference value: 0.67 +/- 0.24%); assay type: cell-based; conditions: htla-230, 24 h
[3] = molecular target: T1, 3',5'-cyclic-AMP phosphodiesterase 4D (Homo sapiens, UniProt Q08499); test: Inhibition of human recombinant PDE4D3 expressed in baculoviral system using cAMP as substrate at 10 uM by fluorescence polarization assay relative to control
[4] = molecular target: 3',5'-cyclic-AMP phosphodiesterase 4B (Homo sapiens) (UniProt Q07343); test: Inhibition of human recombinant PDE4B2 expressed in baculoviral system using cAMP as substrate at 10 uM by fluorescence polarization assay relative to control
[5] = molecular target: T1, 3',5'-cyclic-AMP phosphodiesterase 4D; test: Inhibition of human recombinant PDE4D3 expressed in baculoviral system using cAMP as substrate by fluorescence polarization assay
[6] = Cytotoxicity against human HTLA-230 cells at 100 uM after 24 hrs by lactate dehydrogenase release assay (reference value: 0.67 +/- 0.24%); assay type: cell-based; conditions: htla-230, 24 h
[7] = Drug uptake in BALB/c mouse brain at 10 mg/kg, sc measured at 0.67 hrs by LC-MS/MS analysis; assay type: ADME, organism-based; conditions: read-out: Drug uptake
Mus musculus [8] = test: Toxicity in mouse assessed as sedative effect by measuring reduction of total distance traveled at 10 mg/kg, po measured over 60 mins by open-field test; assay type: organism-based; conditions: in vivo, 1 h
[9] = Plasma concentration in BALB/c mouse at 10 mg/kg, sc measured at 3 hrs by LC-MS/MS analysis; assay type: ADME, organism-based
[10] = Plasma concentration in BALB/c mouse at 10 mg/kg, sc measured at 5 hrs by LC-MS/MS analysis; assay type: ADME, organism-based
[11] = Plasma concentration in BALB/c mouse at 10 mg/kg, sc measured at 0.67 hrs by LC-MS/MS analysis; assay type: ADME, organism-based
[12] = Plasma concentration in BALB/c mouse at 10 mg/kg, sc measured at 0.17 hrs by LC-MS/MS analysis; assay type: ADME, organism-based
[13] = Plasma concentration in BALB/c mouse at 10 mg/kg, sc measured at 2 hrs by LC-MS/MS analysis; assay type: ADME, organism-based
[14] = Drug uptake in BALB/c mouse brain at 10 mg/kg, sc measured at 5 hrs by LC-MS/MS analysis; assay type: ADME, organism-based; conditions: read-out: Drug uptake
Brain = test: AUC (0 to t) in BALB/c mouse brain at 10 mg/kg, sc by LC-MS/MS analysis; assay type: ADME, organism-based; conditions: in vivo
[15] = Genotoxicity in human HTLA-230 cells assessed as gamma-H2AX production at 100 uM after 24 hrs by Western blot analysis; assay type: toxicity, cell-based; conditions: htla-230, 24 h
[16] = Cmax in BALB/c mouse brain at 10 mg/kg, sc by LC-MS/MS analysis; assay type: ADME, organism-based; set-up: dose 10 mg/kg, route subcutaneous
[17] = Drug uptake in BALB/c mouse brain at 10 mg/kg, sc measured at 0.33 hrs by LC-MS/MS analysis; assay type: ADME, organism-based; conditions: read-out: Drug uptake
[18] = Tmax in BALB/c mouse brain at 10 mg/kg, sc by LC-MS/MS analysis; assay type: ADME, organism-based
[19] = Elimination half life in BALB/c mouse brain at 10 mg/kg, sc by LC-MS/MS analysis; assay type: ADME, organism-based; conditions: read-out: beta t1/2 (converted)
[20] = Effect on cAMP level in human HTLA-230 cells at 100 uM after 10 mins by enzyme immunoassay; assay type: ADME, cell-based; conditions: htla-230, 10 min
[21] = Drug uptake in BALB/c mouse brain at 10 mg/kg, sc measured at 2 hrs by LC-MS/MS analysis; assay type: ADME, organism-based; conditions: read-out: Drug uptake
[22] = Cmax in BALB/c mouse plasma at 10 mg/kg, sc by LC-MS/MS analysis; assay type: ADME, organism-based; set-up: dose 10 mg/kg, route subcutaneous
[23] = Drug uptake in BALB/c mouse brain at 10 mg/kg, sc measured at 0.17 hrs by LC-MS/MS analysis; assay type: ADME, organism-based; conditions: read-out: Drug uptake
[24] = molecular target: T1, 3',5'-cyclic-AMP phosphodiesterase 4D; test: Inhibition of PDE4D in human HTLA-230 cells assessed as increase in forskolin-induced cAMP accumulation at 100 uM pretreated for 10 mins followed by forskolin induction measured after 20 mins by enzyme immunoassay; assay type: cell-based
Mus musculus [25] = test: Toxicity in mouse assessed as sedative effect by measuring prolongation of immobility time at 10 mg/kg, po measured over 60 mins by open-field test; assay type: organism-based; conditions: in vivo, 1 h
[26] = Plasma concentration in BALB/c mouse at 10 mg/kg, sc measured at 0.33 hrs by LC-MS/MS analysis; assay type: ADME, organism-based
[27] = Plasma concentration in BALB/c mouse at 10 mg/kg, sc measured at 1 hr by LC-MS/MS analysis; assay type: ADME, organism-based
[28] = Drug uptake in BALB/c mouse brain at 10 mg/kg, sc measured at 1 hr by LC-MS/MS analysis; assay type: ADME, organism-based; conditions: read-out: Drug uptake
[29] = Elimination half life in BALB/c mouse plasma at 10 mg/kg, sc by LC-MS/MS analysis; assay type: ADME, organism-based; conditions: read-out: beta t1/2 (converted)
[30] = AUC (0 to t) in BALB/c mouse plasma at 10 mg/kg, sc by LC-MS/MS analysis; assay type: ADME, organism-based
[31] = Tmax in BALB/c mouse plasma at 10 mg/kg, sc by LC-MS/MS analysis; assay type: ADME, organism-based
[32] = Ratio of AUC (0 to t) in BALB/c mouse brain to AUC (0 to t) in BALB/c mouse plasma at 10 mg/kg, sc by LC-MS/MS analysis; assay type: ADME, organism-based; conditions: read-out: Ratio AUC
[33] = Drug uptake in BALB/c mouse brain at 10 mg/kg, sc measured at 3 hrs by LC-MS/MS analysis; assay type: ADME, organism-based; conditions: read-out: Drug uptake

Sequence of 3',5'-cyclic-AMP phosphodiesterase 4B (Homo sapiens) (Q07343 whole entry): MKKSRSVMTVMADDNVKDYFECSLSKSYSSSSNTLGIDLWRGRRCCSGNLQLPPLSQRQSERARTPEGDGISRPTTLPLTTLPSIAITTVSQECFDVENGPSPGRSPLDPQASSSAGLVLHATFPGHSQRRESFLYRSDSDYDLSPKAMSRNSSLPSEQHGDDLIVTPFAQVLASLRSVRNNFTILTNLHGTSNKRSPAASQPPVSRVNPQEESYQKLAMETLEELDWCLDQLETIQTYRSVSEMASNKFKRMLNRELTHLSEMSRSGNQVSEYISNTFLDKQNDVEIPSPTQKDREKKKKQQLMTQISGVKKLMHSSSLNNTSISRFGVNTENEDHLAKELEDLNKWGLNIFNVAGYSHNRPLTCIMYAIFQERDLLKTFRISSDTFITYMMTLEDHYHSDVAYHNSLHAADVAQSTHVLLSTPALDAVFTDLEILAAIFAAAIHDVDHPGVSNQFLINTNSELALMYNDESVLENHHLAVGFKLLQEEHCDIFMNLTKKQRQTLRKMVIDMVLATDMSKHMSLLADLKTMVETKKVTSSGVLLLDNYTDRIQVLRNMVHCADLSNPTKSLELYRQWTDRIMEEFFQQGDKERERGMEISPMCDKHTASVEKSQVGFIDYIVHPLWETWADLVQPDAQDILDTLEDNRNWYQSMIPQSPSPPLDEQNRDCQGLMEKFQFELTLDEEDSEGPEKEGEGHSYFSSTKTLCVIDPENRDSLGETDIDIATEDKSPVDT
Sequence of 3',5'-cyclic-AMP phosphodiesterase 4A (Homo sapiens) (P27815 whole entry): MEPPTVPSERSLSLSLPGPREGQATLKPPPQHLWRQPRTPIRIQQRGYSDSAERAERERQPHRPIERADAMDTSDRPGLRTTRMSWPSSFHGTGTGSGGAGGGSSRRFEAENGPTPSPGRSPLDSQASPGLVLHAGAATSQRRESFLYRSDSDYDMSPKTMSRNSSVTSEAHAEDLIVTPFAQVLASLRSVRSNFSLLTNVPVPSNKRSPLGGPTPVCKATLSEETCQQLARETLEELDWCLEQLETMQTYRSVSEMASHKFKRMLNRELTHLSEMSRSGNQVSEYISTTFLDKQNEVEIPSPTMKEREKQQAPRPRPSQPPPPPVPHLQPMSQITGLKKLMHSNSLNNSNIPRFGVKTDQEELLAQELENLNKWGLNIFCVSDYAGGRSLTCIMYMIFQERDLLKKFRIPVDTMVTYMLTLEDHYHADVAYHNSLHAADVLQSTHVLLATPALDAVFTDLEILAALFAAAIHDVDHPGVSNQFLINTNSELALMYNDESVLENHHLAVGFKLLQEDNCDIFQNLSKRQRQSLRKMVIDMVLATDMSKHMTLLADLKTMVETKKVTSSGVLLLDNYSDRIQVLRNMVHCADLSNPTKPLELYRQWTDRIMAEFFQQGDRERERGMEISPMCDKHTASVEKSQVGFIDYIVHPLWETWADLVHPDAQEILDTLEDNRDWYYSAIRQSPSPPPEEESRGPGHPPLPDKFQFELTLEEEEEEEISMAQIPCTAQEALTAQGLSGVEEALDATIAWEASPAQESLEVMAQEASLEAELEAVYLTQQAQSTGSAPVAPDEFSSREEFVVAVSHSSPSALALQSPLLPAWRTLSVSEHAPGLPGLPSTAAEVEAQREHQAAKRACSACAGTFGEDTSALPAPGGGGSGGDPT
T1 sequence (Q08499 whole entry): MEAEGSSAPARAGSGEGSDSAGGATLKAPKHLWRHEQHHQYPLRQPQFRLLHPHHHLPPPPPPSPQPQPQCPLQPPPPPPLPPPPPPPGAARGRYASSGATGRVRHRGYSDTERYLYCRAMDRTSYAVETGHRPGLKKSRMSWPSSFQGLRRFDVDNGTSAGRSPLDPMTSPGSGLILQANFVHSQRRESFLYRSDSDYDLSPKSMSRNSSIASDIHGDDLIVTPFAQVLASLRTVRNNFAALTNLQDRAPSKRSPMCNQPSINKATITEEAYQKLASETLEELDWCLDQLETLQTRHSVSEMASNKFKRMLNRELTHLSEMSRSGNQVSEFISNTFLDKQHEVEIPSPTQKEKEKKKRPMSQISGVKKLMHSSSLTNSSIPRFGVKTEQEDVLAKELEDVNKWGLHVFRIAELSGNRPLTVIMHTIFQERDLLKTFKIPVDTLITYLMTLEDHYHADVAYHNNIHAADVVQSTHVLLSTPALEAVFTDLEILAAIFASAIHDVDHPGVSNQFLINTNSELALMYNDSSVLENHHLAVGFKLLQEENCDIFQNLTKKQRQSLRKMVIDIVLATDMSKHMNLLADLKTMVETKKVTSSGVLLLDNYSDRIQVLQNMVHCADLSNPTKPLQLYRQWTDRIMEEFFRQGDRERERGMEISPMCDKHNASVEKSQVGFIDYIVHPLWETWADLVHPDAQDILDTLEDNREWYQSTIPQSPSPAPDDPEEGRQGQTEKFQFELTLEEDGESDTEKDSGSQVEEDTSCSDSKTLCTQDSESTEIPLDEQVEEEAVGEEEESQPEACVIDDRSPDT

Molecule `OC1CCN(CC(O)CO/N=C/c2ccc(OC(F)F)c(OC3CCCC3)c2)CC1` (stereo not given) has an inhibition [1] of 15%, an Activity [2] of 3.42% and an inhibition [3] of 51%. For the same molecule, the inhibition [4] was 15%, the IC50 [5] was 2540 nM and the Activity [6] was 31.37%.

With `CC1CN(C(=O)CO/N=C/c2ccc(OC(F)F)c(OC3CCCC3)c2)CC(C)O1` (stereo not given) the concentration at 0.67 h [7] was 453 ng/g, the Activity (Mus musculus [8]) was “Non-toxic” and the concentration at 3 h [9] was 11.6 ng/mL. The inhibition [1] was 32%, the concentration at 5 h [10] was 67.2 ng/mL and the concentration at 0.67 h [11] was 1090 ng/mL. For the same molecule, the concentration at 0.17 h [12] was 2160 ng/mL, the concentration at 2 h [13] was 217 ng/mL and the concentration at 5 h [14] was 2.94 ng/g. The inhibition [3] was 74%, the AUCt (Brain) was 391 ng·h/g and the Activity [15] was “Non-toxic”. For the same molecule, the Cmax [16] was 1570 ng/g, the inhibition [4] was 29% and the concentration at 0.33 h [17] was 790 ng/g. It also gave a Tmax [18] of 10.2 min, a half-life [19] of 81.6 min and an IC50 [5] of 4840 nM. For the same molecule, the Activity [20] was “Non-toxic”, the concentration at 2 h [21] was 96 ng/g and the Cmax [22] was 4410 ng/mL. For the same molecule, the concentration at 0.17 h [23] was 936 ng/g, the inhibition [24] was “Active” and the Activity (Mus musculus [25]) was “Non-toxic”. The concentration at 0.33 h [26] was 1740 ng/mL, the concentration at 1 h [27] was 657 ng/mL and the concentration at 1 h [28] was 303 ng/g. For the same molecule, the half-life [29] was 42 min, the AUC(0-t) [30] was 1220 ng·h/mL and the Tmax [31] was 10.2 min. The Kp [32] was 0.429, the concentration at 3 h [33] was 5.45 ng/g and the Activity [6] was 0.01%.

With `OC(CO/N=C/c1ccc(OC(F)F)c(OC2CCCC2)c1)CN1CCOCC1` (stereo not given) the inhibition [1] was 41%, the inhibition [3] was 83% and the Activity [15] was “Non-toxic”. For the same molecule, the inhibition [4] was 43%, the IC50 [5] was 1490 nM and the Activity [6] was 0.21%.

In the case of `COc1ccc(/C=N/OCC(O)CN2CC(C)OC(C)C2)cc1OC1CCCC1` (stereo not given), the Activity (Mus musculus [8]) is reported as “Non-toxic” and the Activity (Mus musculus [25]) is reported as “Non-toxic”.

In the case of `COc1cc([C@@H]2c3cc4c(cc3[C@@H](O[C@@H]3O[C@@H]5CO[C@@H](C)O[C@H]5[C@H](O)[C@H]3O)[C@H]3COC(=O)[C@H]23)OCO4)cc(OC)c1O` [ETOPOSIDE], the Activity [15] is reported as “Toxic”.

In the case of `CC1CN(C(=O)CCO/N=C/c2ccc(OC(F)F)c(OC3CCCC3)c2)CC(C)O1` (stereo not given), the inhibition [1] is reported as 34%, the inhibition [3] is reported as 63% and the Activity [15] is reported as “Non-toxic”. For the same molecule, the inhibition [4] was 37%, the IC50 [5] was 470 nM and the Activity [6] was 0.01%.

With `O=C(CO/N=C/c1ccc(OC(F)F)c(OC2CCCC2)c1)N1CCC(O)CC1` the inhibition [1] was 28%, the Activity [2] was 0.01% and the inhibition [3] was 60%. It also gave an inhibition [4] of 26%, an IC50 [5] of 2630 nM and an Activity [6] of 4.62%.

For `CC1CN(CC(O)CO/N=C/c2ccc(OC(F)F)c(OC3CCCC3)c2)CC(C)O1` (stereo not given), the Activity (Mus musculus [8]) was “Toxic”, the inhibition [1] was 68% and the Activity [2] was 0.01%. For the same molecule, the inhibition [3] was 84%, the inhibition [4] was 68% and the IC50 [5] was 190 nM. The Activity (Mus musculus [25]) was “Toxic” and the Activity [6] was 8.83%.

In the case of `O=C(CO/N=C/c1ccc(OC(F)F)c(OC2CCCC2)c1)N1CCOCC1`, the inhibition [1] is reported as 36%, the inhibition [3] is reported as 63% and the inhibition [4] is reported as 31%. The IC50 [5] was 1120 nM and the Activity [6] was 2.06%.

With `COc1ccc(C2CNC(=O)C2)cc1OC1CCCC1` (stereo not given) [ROLIPRAM] the Activity (Mus musculus [8]) was “Toxic” and the Activity (Mus musculus [25]) was “Toxic”.

In the case of `CN1C(=O)CN=C(c2ccccc2)c2cc(Cl)ccc21` [DIAZEPAM], the Activity (Mus musculus [8]) is reported as “Toxic” and the Activity (Mus musculus [25]) is reported as “Toxic”.

`CC1CN(NCC(O)CO/N=C/c2ccc(OC(F)F)c(OC3CCCC3)c2)CC(C)O1` (stereo not given) gave an inhibition [1] of 58%, an inhibition [3] of 87% and an inhibition [4] of 51%. The IC50 [5] was 190 nM and the Activity [6] was 1.54%.

For `COc1ccc(/C=N/OCC(=O)N2CC(C)OC(C)C2)cc1OC1CCCC1` (stereo not given), the concentration at 0.67 h [7] was 84.2 ng/g, the Activity (Mus musculus [8]) was “Non-toxic” and the concentration at 3 h [9] was 2.18 ng/mL. It also gave a concentration at 5 h [10] of 10.4 ng/mL, a concentration at 0.67 h [11] of 343 ng/mL and a concentration at 0.17 h [12] of 4410 ng/mL. The concentration at 2 h [13] was 20 ng/mL, the AUCt (Brain) was 812 ng·h/g and the Activity [15] was “Non-toxic”. For the same molecule, the Cmax [16] was 936 ng/g, the concentration at 0.33 h [17] was 396 ng/g and the Tmax [18] was 10.2 min. For the same molecule, the half-life [19] was 32.4 min, the Activity [20] was “Non-toxic” and the concentration at 2 h [21] was 2.21 ng/g. For the same molecule, the Cmax [22] was 2160 ng/mL, the concentration at 0.17 h [23] was 1570 ng/g and the inhibition [24] was “Active”. The Activity (Mus musculus [25]) was “Non-toxic”, the concentration at 0.33 h [26] was 1310 ng/mL and the concentration at 1 h [27] was 32.8 ng/mL. For the same molecule, the concentration at 1 h [28] was 3.29 ng/g, the half-life [29] was 49.2 min and the AUC(0-t) [30] was 1890 ng·h/mL. It also gave a Tmax [31] of 10.2 min, a Kp [32] of 0.358 and a concentration at 3 h [33] of 1.19 ng/g. The Activity [6] was 0.14%.
